# Patent US11236129B2, “IL-17A binding peptides and medical uses thereof” (Dompe' Farmaceutici S.P.A., priority 2018, dated 2022)
# Like-named read-outs stand apart in the source and are kept apart here. Residues, ends and D or L forms follow the SMILES beside them.
# Columns and labels:
# [1] = target: IL-17RA/IL17RC dimerization induced by IL-17A (Homo sapiens, UniProt Q16552); assay: IL-17RA/IL17RC dimerization assay in response to IL-17A (PathHunter Cytokine Receptor Assay); type: cell-based; conditions: IL-17A at EC80; read-out: IC50 in IL-17RA/IL7RC dimerization assay
# Method in brief: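 Receptor dimerization was read as chemiluminescence from complemented β-galactosidase after IL-17A at EC80 concentration for 6–16 h at 37 °C. Peptides were added 60 min before agonist, at 37 °C or room temperature, with 1% vehicle. Percent inhibition used the EC80-stimulated and vehicle wells as references.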
# [2] = Isoelectric point, log D and log P (SiriusT3); type: physicochemical; conditions: for IP (isoelectric point): 25±1° C., 0.15 M KCl
# Description: The main physicochemical properties (Isoelectric point (IP), log D (7.4) and log P) of the peptides of Table 8 below were determined by using the SiriusT3 apparatus (Sirius Analytical Instruments Ltd., East Sussex, UK) equipped with an Ag/AgCl double junction reference pH electrode, a Sirius D-PAS spectrometer and a turbidity sensing device. […] An overhead stirrer was used and a temperature probe (Peltier controller) monitored the temperature during the course of the titration. The titration experiments were conducted in 0.15 M KCl Ionic Strength Adjusted solution (ISA water) under a nitrogen atmosphere at a temperature of 25±1° C. All tests were performed using standardized 0.5 M KOH and 0.5 M HCl as titration reagents, for the partition coefficient tests a saturated Octanol in ISA water (5% of ISA water) was used as partition solvent. The pKas were determined by potentiometric method by pH-metric titration. The powder (around 0.5 mg) was dissolved in 1.5 ml of ISA water and the titration was performed in triplicate in the pH range 2.0−12.0.
# [3] = type: physicochemical; conditions: pH 7.8
# Description: Each lyophilized peptide was weighed in an amber vial. A calculated volume of phosphate buffered solution at pH 7.8 was added in order to directly obtain 10 mM Stock Solutions. The recovered suspensions were stirred for 30 minutes by orbital shaker incubator at 37° C. Subsequent dilutions were performed to obtain the more diluted stock solutions for the less soluble compounds.
# In order to evaluate the stability and the solubility, all the stock solutions were stored at 25° C. The title was evaluated by UHPLC-MS analysis in comparison with the standard solutions, at 3 time points: T0, 3 days, 1 week.
# The chromatographic profile was evaluated for the quantitative assay while the MS spectra were detected as support in the stability studies.
# Each peptide was weighed and directly diluted at 100 μM with the phosphate buffer at pH 7.8. The solutions were stirred for 5 minutes by vortex and heated at 37° C. for 20 minutes. The obtained standard solution was stored at 25° C. in the dark under controlled temperature.
# A portion of the stock solutions was collected in an amber vial and diluted to 100 μM by phosphate buffer at pH 7.8 (dilution factor, 1:100).
# Reversed-phase UHPLC was performed operating at a flow rate of 0.3 ml/min with a Luna Omega Polar C18 column ([…] 1.6 μm, 2.1×100 mm). Solvent A was 0.5% Formic Acid in water and solvent B was 0.5% Formic Acid in acetonitrile. First, samples were loaded onto the column and washed isocratically at 10% B for 3 min. Then, a gradient of 10-95% B was run over 22 min, held at 95% for 2 min, and then decreased to 10% over 1 min and held, for the pressure stabilization, for 5 min. UV Absorption was monitored by DAD (220-400 nm). ESI-MS ion trap was used for the monitoring of TIC.
# [4] = octanol/ISA water, read-out: logP
# [5] = pH 7.4, pH 7.4, octanol/ISA water, read-out: Log D (7.4)
# Chain of IL-17RA/IL17RC dimerization induced by IL-17A (Q16552 24-155): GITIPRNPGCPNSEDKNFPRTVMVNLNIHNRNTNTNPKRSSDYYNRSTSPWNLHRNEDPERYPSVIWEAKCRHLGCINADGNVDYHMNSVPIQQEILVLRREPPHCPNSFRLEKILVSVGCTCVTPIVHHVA
IC50 [1],IP (isoelectric point) [2],"logP [2, 4]","logD [2, 5]",solubility [3],logP ([2]; logP),"logD ([2]; pH 7.4, Log D (7.4))",Structure (SMILES)
< 1000 nM,4.66,0.4,-5.64,≥ 0.1 mM,–,–,CC[C@H](C)[C@H](NC(=O)[C@H](Cc1c[nH]c2ccccc12)NC(=O)[C@H](CCC(=O)O)NC(=O)[C@H](Cc1ccc(O)cc1)NC(=O)[C@H](CC(C)C)NC(=O)[C@H](CC(=O)O)NC(=O)[C@H](C)NC(=O)[C@@H]1CCCN1C(=O)[C@@H](NC(=O)[C@@H](NC(=O)[C@@H](NC(=O)[C@H](CCSC)NC(=O)[C@@H](NC(C)=O)C(C)C)C(C)C)[C@@H](C)O)[C@@H](C)CC)C(=O)N[C@@H](CCC(=O)O)C(=O)N[C@@H](CCC(=O)O)C(=O)NCC(=O)NCC(=O)N[C@@H](CCCCN)C(=O)N[C@@H](CCC(=O)O)C(=O)N[C@H](C(=O)N[C@@H](Cc1c[nH]c2ccccc12)C(=O)N[C@@H](Cc1c[nH]c2ccccc12)C(=O)N[C@@H](CCC(=O)O)C(=O)N[C@H](C(=O)N[C@@H](Cc1c[nH]c2ccccc12)C(N)=O)[C@@H](C)O)[C@@H](C)O [SEQ ID NO: 25] (Ac-VMVTIPADLYEWIEEGGKETWWETW-NH2)
< 1000 nM,3.54,1.24,-1.94,> 10 mM,–,–,CC(=O)N[C@@H](CC(=O)O)C(=O)N[C@@H](CC(C)C)C(=O)N[C@@H](CO)C(=O)N[C@@H](C)C(=O)N[C@H](C(=O)N[C@H]1CSSC[C@@H](C(=O)N[C@@H](Cc2c[nH]cn2)C(N)=O)NC(=O)[C@H](CCC(=O)O)NC(=O)[C@@H]2CCCN2C(=O)[C@H](CC(=O)O)NC(=O)[C@H](Cc2c[nH]c3ccccc23)NC(=O)[C@@H]2CCCN2C(=O)[C@H](Cc2ccccc2)NC(=O)[C@H](C)NC(=O)[C@H](Cc2c[nH]c3ccccc23)NC1=O)C(C)C [SEQ ID NO: 41]
< 200 nM,5.14,–,-3.9,> 10 mM,–,–,CC[C@H](C)[C@H](NC(=O)[C@H](Cc1c[nH]c2ccccc12)NC(=O)[C@H](CCC(=O)O)NC(=O)[C@H](Cc1ccc(O)cc1)NC(=O)[C@H](CC(C)C)NC(=O)[C@H](CC(=O)O)NC(=O)[C@H](C)NC(=O)[C@@H]1CCCN1C(=O)[C@@H](NC(=O)[C@@H](NC(=O)[C@@H](NC(=O)[C@H](CCSC)NC(=O)[C@@H](NC(C)=O)C(C)C)C(C)C)[C@@H](C)O)[C@@H](C)CC)C(=O)N[C@@H](CCC(=O)O)C(=O)N[C@@H](CCC(=O)O)C(=O)N[C@H](C(=O)N1CCC[C@H]1C(=O)NCC(=O)N[C@@H](C)C(=O)NCC(=O)N[C@H](C(=O)N1CCC[C@H]1C(=O)NCC(=O)N[C@@H](C)C(=O)NCC(N)=O)C(C)C)C(C)C [SEQ ID NO: 37] (Ac-VMVTIPADLYEWIEEVPGAGVPGAG-NH2)

# Second part, the compound before the results:
Structure (SMILES),IC50 [1],IP (isoelectric point) [2],"logP [2, 4]","logD [2, 5]",solubility [3],logP ([2]; logP),"logD ([2]; pH 7.4, Log D (7.4))"
CC[C@H](C)[C@H](NC(=O)[C@H](Cc1c[nH]c2ccccc12)NC(=O)[C@H](CCC(=O)O)NC(=O)[C@H](Cc1ccc(O)cc1)NC(=O)[C@H](CC(C)C)NC(=O)[C@H](CC(=O)O)NC(=O)[C@H](C)NC(=O)[C@@H]1CCCN1C(=O)[C@@H](NC(=O)[C@@H](NC(=O)[C@@H](NC(=O)[C@H](CCSC)NC(=O)[C@@H](NC(C)=O)C(C)C)C(C)C)[C@@H](C)O)[C@@H](C)CC)C(=O)N[C@@H](CC(N)=O)C(=O)N[C@@H](CCCCN)C(N)=O [SEQ ID NO: 16] (Ac-VMVTIPADLYEWINK-NH2),< 400 nM,5.19,0.13,0.24,> 10 mM,–,–
"CC[C@H](C)[C@H](NC(C)=O)C(=O)N[C@@H](Cc1c[nH]cn1)C(=O)N[C@H](C(=O)N[C@H](C(=O)N[C@H](C(=O)N1CCC[C@H]1C(=O)N[C@@H](C)C(=O)N[C@@H](CC(=O)O)C(=O)N[C@@H](CC(C)C)C(=O)N[C@@H](Cc1c[nH]c2ccccc12)C(=O)N[C@@H](CC(=O)O)C(=O)N[C@@H](Cc1c[nH]c2ccccc12)C(=O)N[C@H](C(=O)N[C@@H](CC(N)=O)C(=O)N[C@@H](CCC(=O)O)C(N)=O)[C@@H](C)CC)[C@@H](C)CC)[C@@H](C)O)C(C)C [SEQ ID NO: 12, IHVTIPADLWDWINE] (Ac-IHVTIPADLWDWINE-NH2)",< 200 nM,3.66,–,–,≥ 0.01 mM,1.31,-5.24
